Data published in article PMC4847944 (Bioorganic & medicinal chemistry, 2014).
Where two headings read alike, the source gives them in different places. Marks after values point to notes of the source that are not given here.

Tests used:
MDA-kb2 cell line [1] = test system: MDA-kb2 cell line
[2] = Solubility in phosphate buffer and cell culture media; assay type: physicochemical; details: highest concentration tested per footnote f
MDA-kb2 cell line [3] = test: Cytotoxicity in MDA-kb2 cells

Row | Compound | Cytotoxicity in MDA-kb2 cells (result in words) (MDA-kb2 cell line [1]) | MDA-kb2 cell culture LC50 (MDA-kb2 cell line [1]) | Solubility limit in cell culture media [2] | MDA-kb2 cell culture LC50 (MDA-kb2 cell line [3]; concentration at which cell viability was reduced by 50%, Promega Cell Titer Glo kit) [µM] | Cytotoxicity in MDA-kb2 cells (result in words) (MDA-kb2 cell line [3]; same conditions as the reporter assay)
1 | CO[C@@H]1[C@@H](OC(N)=O)[C@@H](O)[C@H](Oc2ccc3c(O)c(NC(=O)c4ccc(O)c(CC=C(C)C)c4)c(=O)oc3c2C)OC1(C)C [Novobiocin, novobiocin] | some accompanying toxicity | 690 ± 188 µM | – | – | –
2 | COC1=C2C[C@@H](C)C[C@H](OC)[C@H](O)[C@@H](C)/C=C(\C)[C@H](OC(N)=O)[C@@H](OC)/C=C\C=C(/C)C(=O)NC(=CC1=O)C2=O [Geldanamycin, geldanamycin] | – | >2^f μM | >2^f μM | – | –
3 | CO[C@H]1[C@H](OC(=O)c2ccc(C)[nH]2)[C@H](O)[C@@H](Oc2ccc3c(O)c(NC(=O)c4c[nH]c(C(=O)Nc5c(O)c6ccc(O[C@H]7OC(C)(C)[C@@H](OC)[C@H](OC(=O)c8ccc(C)[nH]8)[C@@H]7O)c(C)c6oc5=O)c4C)c(=O)oc3c2C)OC1(C)C [Coumermycin A1, coumermycin A1] | – | – | – | 19.1 ± 9.1 | some accompanying toxicity
